Source: ChEMBL document CHEMBL1142685, “Novel anticholinesterases based on the molecular skeletons of furobenzofuran and methanobenzodioxepine” (J Med Chem, 2005)

Tests used:
[1] = biological target: Cholinesterase (Homo sapiens, UniProt P06276)
Description: Inhibitory concentration against human plasma Butyrylcholinesterase

[2] = biological target: Acetylcholinesterase (Homo sapiens, UniProt P22303)
Description: Inhibitory concentration against human erythrocyte Acetylcholinesterase

[3] = system: SK-N-SH; assay: Reduction in Amyloid-beta precursor protein levels in Human SK-N-SH cells at 10 uM; type: functional

Cholinesterase, sequence (P06276 whole entry): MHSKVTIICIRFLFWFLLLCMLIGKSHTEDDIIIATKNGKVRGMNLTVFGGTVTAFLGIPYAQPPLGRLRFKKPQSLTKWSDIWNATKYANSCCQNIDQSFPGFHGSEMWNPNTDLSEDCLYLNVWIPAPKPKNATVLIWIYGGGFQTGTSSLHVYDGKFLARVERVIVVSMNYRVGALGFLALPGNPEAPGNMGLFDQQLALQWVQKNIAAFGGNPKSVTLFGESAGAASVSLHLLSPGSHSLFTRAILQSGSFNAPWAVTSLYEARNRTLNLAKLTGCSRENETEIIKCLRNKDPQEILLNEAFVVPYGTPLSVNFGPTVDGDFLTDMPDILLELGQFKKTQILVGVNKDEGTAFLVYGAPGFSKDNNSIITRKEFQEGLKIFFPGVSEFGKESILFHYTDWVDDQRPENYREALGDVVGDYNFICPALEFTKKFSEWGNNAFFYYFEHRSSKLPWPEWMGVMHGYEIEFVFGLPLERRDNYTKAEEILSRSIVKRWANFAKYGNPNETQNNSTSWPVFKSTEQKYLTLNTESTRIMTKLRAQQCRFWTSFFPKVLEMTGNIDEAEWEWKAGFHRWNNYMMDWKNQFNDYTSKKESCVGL
Acetylcholinesterase, sequence (P22303 whole entry): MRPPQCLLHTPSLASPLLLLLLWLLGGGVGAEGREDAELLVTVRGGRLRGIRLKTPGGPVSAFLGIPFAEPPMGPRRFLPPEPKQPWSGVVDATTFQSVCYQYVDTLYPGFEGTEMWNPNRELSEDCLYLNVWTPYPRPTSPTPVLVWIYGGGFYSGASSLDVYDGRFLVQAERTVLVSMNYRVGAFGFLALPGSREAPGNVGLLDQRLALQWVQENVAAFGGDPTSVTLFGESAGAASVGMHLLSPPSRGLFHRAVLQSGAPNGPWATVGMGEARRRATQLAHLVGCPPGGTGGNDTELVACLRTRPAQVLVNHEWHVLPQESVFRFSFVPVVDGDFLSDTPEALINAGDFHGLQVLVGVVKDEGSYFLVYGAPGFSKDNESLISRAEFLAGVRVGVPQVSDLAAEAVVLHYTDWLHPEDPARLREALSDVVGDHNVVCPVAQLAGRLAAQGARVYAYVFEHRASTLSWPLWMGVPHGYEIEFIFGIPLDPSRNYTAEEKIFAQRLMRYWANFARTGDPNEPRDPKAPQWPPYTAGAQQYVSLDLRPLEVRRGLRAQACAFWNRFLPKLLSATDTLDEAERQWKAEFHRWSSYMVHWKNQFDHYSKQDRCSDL

SMILES: CC(C)c1ccc(NC(=O)Oc2ccc3c(c2)[C@]2(C)CCOC2N3C)cc1 (some centres not stated)
- IC50 [1]: 17 nM
- IC50 [2]: 3860 nM

SMILES: Cc1ccccc1NC(=O)Oc1ccc2c(c1)C1(C)COC(C1)O2 (configuration not stated)
- IC50 [1]: > 30000 nM
- IC50 [2]: 56 nM

SMILES: Cc1ccccc1NC(=O)Oc1ccc2c(c1)C1(C)CCOC1O2 (configuration not stated)
- IC50 [1]: > 30000 nM

SMILES: CC(C)c1ccc(NC(=O)Oc2ccc3c(c2)C2(C)COC(C2)O3)cc1 (configuration not stated)
- IC50 [1]: 22 nM
- IC50 [2]: 4300 nM

SMILES: CC(C)c1ccc(NC(=O)Oc2ccc3c(c2)C2(C)CCOC2O3)cc1 (configuration not stated)
- IC50 [1]: 27 nM

SMILES: CCNC(=O)Oc1ccc2c(c1)[C@]1(C)CCN(C)C1N2C (some centres not stated)
- IC50 [1]: 4 nM
- IC50 [2]: 94 nM

SMILES: Cc1ccccc1NC(=O)Oc1ccc2c(c1)[C@]1(C)CCOC1N2C (some centres not stated)
- IC50 [1]: 1560 nM
- IC50 [2]: 13 nM

SMILES: CNC(=O)Oc1ccc2c(c1)[C@]1(C)CCOC1N2C (some centres not stated)
- IC50 [1]: 4 nM
- IC50 [2]: 27 nM

SMILES: CCNC(=O)Oc1ccc2c(c1)C1(C)COC(C1)O2 (configuration not stated)
- IC50 [1]: 24 nM

SMILES: CCNC(=O)Oc1ccc2c(c1)[C@]1(C)CCOC1N2C (some centres not stated)
- IC50 [1]: 2 nM
- IC50 [2]: 82 nM

SMILES: CCNC(=O)Oc1ccc2c(c1)C1(C)CCOC1O2 (configuration not stated)
- IC50 [1]: 6 nM
- IC50 [2]: 360 nM

SMILES: CCc1ccccc1NC(=O)Oc1ccc2c(c1)[C@]1(C)CC[N+](C)([O-])[C@@H]1N2C (some centres not stated)
- IC50 [1]: 1700 nM
- IC50 [2]: 125 nM

SMILES: CN1CC[C@@]2(C)c3cc(OC(=O)Nc4ccccc4)ccc3N(C)[C@@H]12 [PHENSERINE]
- Reduction [3]: 50%
